Results from patent US11654140B2, “Treatment of ocular inflammatory diseases using laquinimod” (Active Biotech AB, priority 2012, dated 2023).

Experiments:
[1] = tested on: ovalbumin-induced allergic conjunctivitis (late phase reaction) in mice; experiment: Ocular active anaphylaxis (late phase) in mice, ovalbumin model, eosinophil infiltration into conjunctiva (Example 2); assay type: in vivo; conditions: for Eosinophil density, mean / Inhibition of Eosinophil Infiltration vs. Vehicle: 10 μl topical right eye four times daily Day 8-17, five times Day 18; for Eosinophil density, mean: conjunctiva Day 19
Method: Laquinimod solutions were prepared as in Example 1.
Forty (40) Balb/c albino mice were randomly allocated to five groups of eight animals each. Only the right eyes of each animal were used in this study.
On Days 1 and 8, animals in groups 2-5 were injected once intraperitoneally with 0.2 ml of a mixture comprising 5 μg/ml ovalbumin and 15 mg/ml alum in phosphate buffered saline (PBS; pH 7.3-7.4). Animals of group 1 received a mock sensitization comprising 0.2 ml intraperitoneal injection of PBS only on Days 1 and 8.
Laquinimod or controls were delivered into the right conjunctival sac as follows: • From Day 8 to Day 17, animals were dosed four times daily with 10 μl of either 1% laquinimod, 5% laquinimod, or vehicle. Reference Group 5 was dosed with the same regimen, but starting on Day 15. (**Note: Due to a technical error, four mice from Group 1 (negative vehicle) were not dosed on Day 8 and one mouse from Group 1 (negative vehicle) was not dosed on Day 11. This was deemed not to be a critical error that would affect the outcome of the study so the study was continued). • On Day 18, animals were dosed five times during a three hour period before the second challenge (3 h, 2 h, 1 h, 40 min., and 10 min.).
Allergic conjunctivitis was achieved by a single administration on Day 15 (30 minutes before the treatment regimen) and Day 18 (2 hours after 40 minute treatment) with 10 μl of 5 mg/ml ovalbumin in PBS, pH 7.3-7.4 to the right eyes of all […] in groups 2 through 5. Group 1 was mock challenged with 10 μl PBS only.
On Day 19 (12 h to 24 h after challenge), […] were euthanized using an intraperitoneal injection of pentobarbital. Right eyelids and eyeballs were immediately fixed in Bouin-Hollande solution for 24 hours and embedded in paraffin wax. Fixed samples were cut vertically into 5 to 7 micrometer thick sections with a microtome in two different regions—the bulbar conjunctiva and the fornix and palpebral conjunctiva. Three sections per region were selected for analysis based on the quality of the sectioning. The selected sections were stained with May-Grunwald/acid Giemsa.
After staining, digital images using 200× magnifications were taken with a Leica light microscope. Total area of subconjunctival tissue was measured automatically using the Leica Application Suite (LAS) software. Eosinophils were counted throughout the whole conjunctiva in each of the three sections per sample. The density per square millimeter of eosinophils stained with acid Giemsa was calculated for each specimen. The average cell density per eye was calculated from the results of the […] sections.

[2] = Animal body weight and adverse clinical effects, ovalbumin study (Example 2); assay type: in vivo; conditions: laquinimod-treated mice, multiple topical administrations
Source text: This weight loss is commonly observed during chronic corticosteroid treatments.

[3] = tested on: subject suffering from an inflammation of the orbital tissue, the lacrimal apparatus, the eyelid, the cornea, the retina or the optic pathway; experiment: Laquinimod for treating inflammation in the eye (Example 7); assay type: in vivo; conditions: laquinimod composition, once daily
Method: (§1) In the examples 4-9 below, the administration of the composition is once daily. The administration can be repeated daily for a period of one, two, three or four days, up to 14 days, or longer as necessary.
A laquinimod composition as described herein is administered to a subject suffering from an inflammation of the orbital tissue, the lacrimal apparatus, the eyelid, the cornea, the retina or the optic pathway in the eye. The administration of the composition is effective to treat the subject suffering from the inflammation. The administration of the composition is also effective to reduce intraocular inflammation in the subject.

[4] = tested on: subject suffering from uveitis; experiment: Laquinimod for treating uveitis (Example 4); assay type: in vivo; conditions: laquinimod composition administered to the eye, once daily
Method: In the examples 4-9 below, the administration of the composition is once daily. The administration can be repeated daily for a period of one, two, three or four days, up to 14 days, or longer as necessary. A laquinimod composition as described herein is administered to the eye of a subject suffering from uveitis. The administration of the composition is effective to treat the subject suffering from uveitis. The administration of the composition is also effective to reduce intraocular inflammation in the subject. The administration of the composition is also effective to reduce retina tissue destruction in the subject.

[5] = tested on: subject suffering from viral conjunctivitis; experiment: Laquinimod for treating viral conjunctivitis (Example 6); assay type: in vivo; conditions: laquinimod composition, once daily
Method: as §1
A laquinimod composition as described herein is administered to a subject suffering from viral conjunctivitis. The administration of the composition is effective to treat the subject suffering from viral conjunctivitis. The administration of the composition is also effective to reduce intraocular inflammation in the subject.

[6] = tested on: S-antigen-induced experimental autoimmune uveitis (EAU) in rats; experiment: EAU model in rats, histological ocular evaluation (Example 1); assay type: in vivo, rat; conditions: Day 16; for Histological ocular evaluation of both eyes, mean histologic grade: 10 μl once daily both eyes from Day 7, scale 0-7
Method: A 1% (10 mg/ml) and a 5% (50 mg/ml) solution of laquinimod sodium were prepared in sterile water. Dissolution of laquinimod powder was achieved by shaking, stirring, or low-speed vortex. The solutions were stored for up to 2 weeks at 2-8° C. and up to 24 hours at room temperature. Laquinimod solutions were prepared under light protection and were protected from light for the duration of the experiment. […] One 100 mg/4 ml in olive oil dose was prepared every 2 days and stored at room temperature.
Thirty two female albino Lewis rats were randomly divided into four (4) groups of eight (8) rats. Ocular inflammation was induced at Day 1 by injection of 100 μl of human S-antigen (100 μg) in Freud's complete adjuvant (4 mg/ml) into the footpad of each rat, and an intraperitoneal injection of 1 μg/100 μl pertussis toxin.
Beginning on Day 7 until the end of the study, each animal group was treated with a test solution in both eyes as shown in Table 1:
Immediately after euthanasia (i.e., at Day 16), both eyeballs of all rats of each group were enucleated and prepared for histological examination. They were fixed in Bouin-Hollande solution, dehydrated, and embedded in paraffin wax. They were then cut into eight sections, approximate five to seven micrometers thick and stained with Trichome of Masson.

[7] = tested on: S-antigen-induced uveitis in albino rats; experiment: Ocular vs oral laquinimod in S-antigen-induced uveitis in albino rats, histological analysis (Example 10); assay type: in vivo, rat; conditions: for Histological ocular evaluation, % Inhibition: Day 19
[8] = 1%, 1× 10 μl instillation/day for 7 days in both eyes
[9] = 1%, 1×/day for 7 days, 1 mL/kg, per os
[10] = 5%, 1× 10 μl instillation/day for 7 days in both eyes
[11] = 5%, 1×/day for 7 days, 1 mL/kg, per os

For CCN(C(=O)c1c(O)c2c(Cl)cccc2n(C)c1=O)c1ccccc1 [Laquinimod, laquinimod], the “Eosinophil density, mean” value ([1]; 1% Laquinimod) was 117.5 cells/mm2, the “Inhibition of Eosinophil Infiltration vs. Vehicle” value ([1]; 1% Laquinimod, not statistically significant) was 48% and the “Inhibition of Eosinophil Infiltration vs. Vehicle” value ([1]; 1% Laquinimod, not statistically significant, listed as laquinimod) was 48%. The “Eosinophil density, mean” value ([1]; 5% Laquinimod) was 72.5 cells/mm2, the “Inhibition of Eosinophil Infiltration vs. Vehicle” value ([1]; 5% Laquinimod, p 0.0023) was 68% and the “Inhibition of Eosinophil Infiltration vs. Vehicle” value ([1]; 5% Laquinimod, p 0.0023, listed as laquinimod) was 68%. For the same compound, the “late ocular anaphylaxis reaction” value ([1]; multiple topical administrations, statistically significant effect at a dose of 5%) was “inhibited the late ocular anaphylaxis reaction”, the adverse clinical effect [2] was “No adverse clinical effect was observed” and the “reduce intraocular inflammation in the subject” value (“reduce intraocular inflammation” for short) ([3]; inflammation in the eye) was “effective”. The “treat the subject suffering from the inflammation” value ([3]; inflammation of orbital tissue, lacrimal apparatus, eyelid, cornea, retina or optic pathway) was “effective”, the “treat the subject suffering from uveitis” value [4] was “effective” and the “reduce intraocular inflammation” value ([4]; uveitis) was “effective”. The “reduce retina tissue destruction in the subject” value ([4]; uveitis) was “effective”, the “treat the subject suffering from viral conjunctivitis” value [5] was “effective” and the “reduce intraocular inflammation” value ([5]; viral conjunctivitis) was “effective”. The “Histological ocular evaluation of both eyes, mean histologic grade” value ([6]; 1% Laquinimod) was 1.2, the “Histological ocular evaluation of both eyes, mean histologic grade” value ([6]; 1% Laquinimod, listed as laquinimod) was 1.2±2.2 and the “eyes showing significant destruction of the retina associated with infiltration of inflammatory cells” value ([6]; 1% laquinimod once per day) was “four eyes out of sixteen”. The “Histological ocular evaluation of both eyes, mean histologic grade” value ([6]; 5% Laquinimod) was 0.7, the “Histological ocular evaluation of both eyes, mean histologic grade” value ([6]; 5% Laquinimod, listed as laquinimod) was 0.7±1.9 and the “eyes showing destruction of the retina associated with infiltration of inflammatory cells” value ([6]; 5% laquinimod once per day) was “two eyes (from two different animals) out of sixteen”. The “Histological ocular evaluation (scale 0-7) Both Eyes/Day 19, mean” value [7, 8] was 2.8, the “Histological ocular evaluation, % Inhibition” value [7, 8] was 7.00% and the “Histological ocular evaluation (scale 0-7) Both Eyes/Day 19, mean” value [7, 9] was 2.3. For the same compound, the “Histological ocular evaluation, % Inhibition” value [7, 9] was 23.00%, the “Histological ocular evaluation (scale 0-7) Both Eyes/Day 19, mean” value [7, 10] was 1.8 and the “Histological ocular evaluation, % Inhibition” value [7, 10] was 40.00%. For the same compound, the “Histological ocular evaluation (scale 0-7) Both Eyes/Day 19, mean” value [7, 11] was 1.2 and the “Histological ocular evaluation, % Inhibition” value [7, 11] was 60.00%.
